Measured values taken from patent US20250154219A1, “PEPTIDE ANALOGS” (Adepthera LLC, priority 2017, published 2025).

How the values were obtained:
CLR/RAMP1 receptor [1] = molecular target: T1, CLR/RAMP1 receptor (Homo sapiens, UniProt O60894+Q16602); test: CLR/RAMP1 cAMP receptor-activation assay (agonist mode); format: cell-based; settings: for CLR/RAMP1 Max Activity % of positive control: agonist mode, positive control β-CGRP;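 for all read-outs here: Dose–response over 10 threefold dilutions from 1.0 µM, run in duplicate, luminescent cAMP detection (RLU), activity scaled between vehicle control (0%) and maximal control (100%)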
T1 sequence (Q16602 23-461): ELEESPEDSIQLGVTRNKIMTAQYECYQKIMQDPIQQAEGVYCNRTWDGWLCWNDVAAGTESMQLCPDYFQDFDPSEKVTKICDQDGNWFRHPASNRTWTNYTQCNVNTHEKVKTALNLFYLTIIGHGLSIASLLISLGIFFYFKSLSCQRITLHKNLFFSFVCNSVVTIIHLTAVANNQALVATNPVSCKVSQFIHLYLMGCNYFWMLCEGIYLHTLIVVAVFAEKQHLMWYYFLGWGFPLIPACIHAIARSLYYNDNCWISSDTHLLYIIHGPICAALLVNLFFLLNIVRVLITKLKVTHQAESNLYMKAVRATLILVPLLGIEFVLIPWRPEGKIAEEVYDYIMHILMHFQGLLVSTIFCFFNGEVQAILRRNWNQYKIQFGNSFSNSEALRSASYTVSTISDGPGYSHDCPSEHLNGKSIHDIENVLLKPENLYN
T1 sequence (O60894 27-148): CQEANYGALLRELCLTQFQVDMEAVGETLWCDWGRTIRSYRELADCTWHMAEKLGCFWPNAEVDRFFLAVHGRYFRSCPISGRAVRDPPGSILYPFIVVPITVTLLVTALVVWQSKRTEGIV
Procedure: (§1) Using a receptor activation assay, the dose-dependent stimulatory response of peptide agonists on a CLR/RAMP1 receptor, a CLR/RAMP2, or a CLR/RAMP3 receptor complex was determined. A cell line carrying the recombinant CLR/RAMP1, CLR/RAMP2, or a CLR/RAMP3 receptor was employed in the assay. Peptide agonist activities were tested, in duplicate, at 10 different concentrations, starting with 1.0 μM and serially diluted 3-fold, in DMSO. […] The CLR/RAMP1 CAMP, CLR/RAMP2 arrestin, and CLR/RAMP3 CAMP assays (DiscoveRx, Fremont, Calif.) were used.
(§2) The pharmacology of superagonistic activity of synthetic analogs was studied in cells that stably express CLR/RAMP1 (1321N1 cells), CLR/RAMP2 (CHO-K1 cells), or CLR/RAMP3 (CHO-K1 cells) receptors.
(§3) For the analysis of Gs-coupled CAMP production, cAMP Hunter cell lines were expanded from freezer stocks, and cells were seeded in a total volume of 20 μL into white walled, 384-well microplates and incubated at 37 C for the appropriate time prior to testing. The CAMP modulation was determined using the DiscoverX HitHunter CAMP XS+ assay. For agonistic activity determination, cells were incubated with sample to induce response. Media was aspirated from cells and replaced with 15 μL 2:1 HBSS/10 mM Hepes: CAMP XS+Ab reagent. […] For Gs-coupled agonistic assays, percentage activity is calculated using the following formula: % Activity=100%×(mean RLU of test sample−mean RLU of vehicle control)/(mean RLU of MAX control−mean RLU of vehicle control).

CLR/RAMP2 receptor [2] = molecular target: T2, CLR/RAMP2 receptor (Homo sapiens, UniProt O60895+Q16602); test: CLR/RAMP2 arrestin receptor-activation assay (agonist mode); format: cell-based; settings: for EC50: CHO-K1 cells stably expressing CLR/RAMP2, arrestin assay; for CLR/RAMP2 Max Activity % of positive control: agonist mode, positive control ADM;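 for all read-outs here: agonist dose-response in recombinant cell lines stably expressing each receptor complex, duplicate wells over 10 threefold dilutions from a top concentration of 1.0 µM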
T2 sequence (Q16602 23-461): as the sequence (Q16602 23-461) above
T2 sequence (O60895 43-175): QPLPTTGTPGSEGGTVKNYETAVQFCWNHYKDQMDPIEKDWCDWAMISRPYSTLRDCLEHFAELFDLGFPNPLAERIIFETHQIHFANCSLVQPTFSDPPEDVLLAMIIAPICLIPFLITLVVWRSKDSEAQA
Procedure: as §1, §2
(§4) For the Arrestin assays, PathHunter cell lines (Discoverx Inc.) were expanded from freezer stocks, and seeded in a total volume of 20 μL into white walled, 384-well microplates and incubated at 37 C for the appropriate time prior to testing. For agonist determination, cells were incubated with sample to induce response. […] The microplates were read following signal generation with a PerkinElmer Envision™ instrument for chemiluminescent signal detection.
(§5) The compound activity was analyzed using a CBIS data analysis suite (ChemInnovation, CA). For agonist mode assays, percentage activity was calculated using the following formula:
(§6) % Activity=100%×(mean RLU of test sample−mean RLU of vehicle control)/(mean MAX control ligand−mean RLU of vehicle control).

CLR/RAMP3 receptor [3] = molecular target: T3, CLR/RAMP3 receptor (Homo sapiens, UniProt O60896+Q16602); test: CLR/RAMP3 cAMP receptor-activation assay (agonist mode); format: cell-based; settings: for EC50: CHO-K1 cells stably expressing CLR/RAMP3, cAMP assay; for CLR/RAMP3 Max Activity % of positive control: agonist mode
T3 sequence (Q16602 23-461): as the sequence (Q16602 23-461) above
T3 sequence (O60896 24-148): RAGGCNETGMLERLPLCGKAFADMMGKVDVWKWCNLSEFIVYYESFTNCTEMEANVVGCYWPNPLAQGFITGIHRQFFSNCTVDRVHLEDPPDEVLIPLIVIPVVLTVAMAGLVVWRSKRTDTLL
Procedure: as §1, §2, §3

apelin receptor AGTRL1 = molecular target: T4, apelin receptor AGTRL1 (Homo sapiens, UniProt P35414); test: AGTRL1 cAMP assay; format: cell-based
T4 sequence (P35414 1-380): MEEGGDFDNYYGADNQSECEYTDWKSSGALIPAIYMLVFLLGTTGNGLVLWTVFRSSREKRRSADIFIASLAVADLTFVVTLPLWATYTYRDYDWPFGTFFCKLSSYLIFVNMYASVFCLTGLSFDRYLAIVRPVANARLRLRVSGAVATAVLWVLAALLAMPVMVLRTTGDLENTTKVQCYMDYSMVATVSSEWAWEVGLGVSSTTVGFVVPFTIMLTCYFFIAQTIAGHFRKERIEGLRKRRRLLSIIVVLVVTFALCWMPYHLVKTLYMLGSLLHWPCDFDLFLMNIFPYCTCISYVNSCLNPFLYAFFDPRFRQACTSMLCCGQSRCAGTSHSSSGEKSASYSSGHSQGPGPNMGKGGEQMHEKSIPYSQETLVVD
Procedure: (§7) The agonistic activities toward SSTR2, NTSR1, and AGTRL1 were assayed with an SSTR2 arrestin assay, an NTSR1 calcium flux assay, and an AGTRL1 CAMP assay (Discoverx Inc.), respectively.
as §3

CLR/RAMP1 receptor [4] = molecular target: T1, CLR/RAMP1 receptor; test: CLR/RAMP1 cAMP assay, antagonist mode (CGRP-stimulated); format: cell-based; settings: for CLR/RAMP1 Max Activity % of positive control (antagonist): antagonist mode; for receptor selectivity of antagonists, in words: CLR/RAMP1 versus CLR/RAMP2
Procedure: (§8) A cell line carrying the recombinant CLR/RAMP1, CLR/RAMP2, or a CLR/RAMP3 receptor was employed in the assay. […] The CLR/RAMP1 CAMP, CLR/RAMP2 arrestin, and CLR/RAMP3 CAMP assays (DiscoveRx, Fremont, Calif.) were used.
(§9) For the analysis of antagonistic activity, synthetic analogs were pre-incubated with the cells before adding the reference ligand at its EC80. […] For the determination of antagonistic activity, cells were pre-incubated with sample followed by agonist challenge at the EC80 concentration. […] After appropriate compound incubation, assay signal was generated through incubation with 20 μL cAMP XS+ED/CL lysis cocktail for one hour followed by incubation with 20 μL cAMP XS+EA reagent for three hours at room temperature. Microplates were read following signal generation with a PerkinElmer Envision™ instrument for chemiluminescent signal detection.
(§10) For the antagonistic activity assay, percentage inhibition is calculated using the following formula: % Inhibition=100%×(1−(mean RLU of test sample−mean RLU of vehicle control)/(mean RLU of EC80 control−mean RLU of vehicle control)).

CLR/RAMP2 receptor [5] = molecular target: T2, CLR/RAMP2 receptor; test: CLR/RAMP2 arrestin assay, antagonist mode (ADM-stimulated); format: cell-based
Procedure: A cell line carrying the recombinant CLR/RAMP1, CLR/RAMP2, or a CLR/RAMP3 receptor was employed in the assay. Peptide agonist activities were tested, in duplicate, at 10 different concentrations, starting with 1.0 μM and serially diluted 3-fold, in DMSO. […] The CLR/RAMP1 CAMP, CLR/RAMP2 arrestin, and CLR/RAMP3 CAMP assays (DiscoveRx, Fremont, Calif.) were used.
For the analysis of antagonistic activity, synthetic analogs were pre-incubated with the cells before adding the reference ligand at its EC80. […] For antagonistic activity determination, cells were pre-incubated with antagonist followed by agonist challenge at the EC80 concentration. […] Then, 5 μL of 6× EC80 agonist in assay buffer was added to the cells and incubated at 37 C or room temperature for 90 or 180 minutes.
The microplates were read following signal generation with a PerkinElmer Envision™ instrument for chemiluminescent signal detection.
% Activity=100%×(mean RLU of test sample−mean RLU of vehicle control)/(mean MAX control ligand−mean RLU of vehicle control). For antagonistic activity assays, percentage inhibition was calculated using the following formula: % Inhibition=100%×(1−(mean RLU of test sample−mean RLU of vehicle control)/(mean RLU of EC80 control−mean RLU of vehicle control)).

[6] = molecular target: neurotensin receptor 1 (NTSR1) (Homo sapiens, UniProt P30989); test: NTSR1 calcium flux assay; format: cell-based
Chain of neurotensin receptor 1 (NTSR1) (P30989 whole entry): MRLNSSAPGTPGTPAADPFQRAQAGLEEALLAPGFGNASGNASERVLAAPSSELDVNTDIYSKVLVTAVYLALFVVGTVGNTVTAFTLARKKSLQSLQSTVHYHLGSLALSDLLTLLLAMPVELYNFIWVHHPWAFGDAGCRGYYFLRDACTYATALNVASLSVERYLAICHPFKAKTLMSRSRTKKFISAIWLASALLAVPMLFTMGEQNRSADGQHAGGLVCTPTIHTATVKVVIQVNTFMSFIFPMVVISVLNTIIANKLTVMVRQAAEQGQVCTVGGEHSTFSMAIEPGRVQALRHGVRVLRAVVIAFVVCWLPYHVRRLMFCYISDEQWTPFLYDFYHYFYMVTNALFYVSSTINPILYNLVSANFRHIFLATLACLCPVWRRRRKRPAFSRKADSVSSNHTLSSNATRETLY
Procedure: The agonistic activities toward SSTR2, NTSR1, and AGTRL1 were assayed with an SSTR2 arrestin assay, an NTSR1 calcium flux assay, and an AGTRL1 CAMP assay (Discoverx Inc.), respectively. The antagonistic activities toward BDKRB1 and AGTR1 were assayed with a BDKRB1 calcium flux assay and an AGTR1 calcium flux assay (Discoverx Inc.), respectively.
For the analysis of calcium flux, cell lines were expanded from freezer stocks and seeded in a total volume of 20 μL into black-walled, clear-bottom, Poly-D-lysine coated 384-well microplates and incubated at 37 C for the appropriate time prior to testing. […] Compound agonist activity was measured on a FLIPR Tetra (MDS), and calcium mobilization was monitored for 2 minutes and 10 μL 4× sample in HBSS/20 mM Hepes was added to the cells 5 seconds into the assay.
The compound activity was analyzed using a CBIS data analysis suite (ChemInnovation, CA), and percentage activity is calculated using the following formula: % Activity=100%×(mean RFU of test sample−mean RFU of vehicle control)/(mean MAX RFU control ligand−mean RFU of vehicle control). For antagonist assays, percentage inhibition is calculated using the following formula: % Inhibition=100%×(1−(mean RFU of test sample−mean RFU of vehicle control)/(mean RFU of EC80 control−mean RFU of vehicle control)).

[7] = molecular target: T5, bradykinin receptor 1 (BDKRB1) (Homo sapiens, UniProt P46663); test: BDKRB1 calcium flux assay, antagonist mode; format: cell-based; settings: IC50 column pair
T5 sequence (P46663 1-353): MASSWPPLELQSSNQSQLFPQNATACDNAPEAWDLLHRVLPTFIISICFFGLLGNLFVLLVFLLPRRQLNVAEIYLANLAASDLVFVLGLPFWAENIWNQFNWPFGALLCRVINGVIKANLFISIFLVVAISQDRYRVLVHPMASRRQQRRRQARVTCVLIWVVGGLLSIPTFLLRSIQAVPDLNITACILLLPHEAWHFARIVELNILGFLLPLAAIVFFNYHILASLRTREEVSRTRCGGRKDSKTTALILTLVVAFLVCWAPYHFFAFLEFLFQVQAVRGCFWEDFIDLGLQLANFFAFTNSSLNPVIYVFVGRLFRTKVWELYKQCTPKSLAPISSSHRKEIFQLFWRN
Procedure: The antagonistic activities toward BDKRB1 and AGTR1 were assayed with a BDKRB1 calcium flux assay and an AGTR1 calcium flux assay (Discoverx Inc.), respectively.
For antagonist determination, cells were pre-incubated with sample followed by agonist challenge at the EC80 concentration. Intermediate dilution of sample stocks was performed to generate 3× sample in assay buffer. After dye loading, cells were removed from the incubator and 10 μL 3× sample was added. Cells were incubated for 30 minutes at room temperature in the dark to equilibrate plate temperature. […] Compound antagonistic activity was measured on a FLIPR Tetra (MDS), and calcium mobilization was monitored for 2 minutes and 10 μL EC80 agonist in HBSS/20 mM Hepes was added to the cells 5 seconds into the assay.
For antagonist assays, percentage inhibition is calculated using the following formula: % Inhibition=100%×(1−(mean RFU of test sample−mean RFU of vehicle control)/(mean RFU of EC80 control−mean RFU of vehicle control)).

[8] = molecular target: somatostatin receptor SSTR2 (Homo sapiens, UniProt P30874); settings: arrestin assay
Chain of somatostatin receptor SSTR2 (P30874 whole entry): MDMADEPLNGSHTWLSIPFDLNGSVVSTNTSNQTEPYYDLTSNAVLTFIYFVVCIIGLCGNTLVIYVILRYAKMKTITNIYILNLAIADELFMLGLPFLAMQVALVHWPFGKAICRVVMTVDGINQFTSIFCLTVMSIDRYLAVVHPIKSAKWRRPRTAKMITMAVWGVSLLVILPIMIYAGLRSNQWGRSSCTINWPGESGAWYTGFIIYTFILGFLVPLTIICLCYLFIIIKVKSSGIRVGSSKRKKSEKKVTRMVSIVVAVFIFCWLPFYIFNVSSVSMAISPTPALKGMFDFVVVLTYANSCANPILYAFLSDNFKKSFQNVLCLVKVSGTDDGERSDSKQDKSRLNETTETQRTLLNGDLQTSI
Procedure: as §7, §4, §5, §6

CLR/RAMP3 receptor [9] = molecular target: T3, CLR/RAMP3 receptor; test: CLR/RAMP3 cAMP assay, antagonist mode; format: cell-based
Procedure: as §8, §9, §10

miniPEG-K(PAL)GCRFGTCTVQKLAHQIYQFTDKDSAPVDPSSPHSY-NH2 [SEQ ID NO: 48]
EC50 (CLR/RAMP1 receptor [1]; 1321N1 cells stably expressing CLR/RAMP1, cAMP assay): 0.3 nM | CLR/RAMP1 Max Activity % of positive control (CLR/RAMP1 receptor [1]): 78 % of positive control | EC50 (CLR/RAMP2 receptor [2]): 0.2 nM | CLR/RAMP2 Max Activity % of positive control (CLR/RAMP2 receptor [2]): 77 % of positive control | EC50 (CLR/RAMP3 receptor [3]): 0.07 nM | CLR/RAMP3 Max Activity % of positive control (CLR/RAMP3 receptor [3]): 141 % of positive control

miniPEG-K(PAL)GCRFGTCTVQKLAHQIYQFTDKDKDNSAPVDPSSPHSY-NH2 [SEQ ID NO: 28]
CLR/RAMP1 Max Activity % of positive control (CLR/RAMP1 receptor [1]): 54 % of positive control | EC50 (CLR/RAMP2 receptor [2]): 0.5 nM | CLR/RAMP2 Max Activity % of positive control (CLR/RAMP2 receptor [2]): 143 % of positive control | EC50 (CLR/RAMP3 receptor [3]): 0.06 nM | CLR/RAMP3 Max Activity % of positive control (CLR/RAMP3 receptor [3]): 117 % of positive control

(Glp)RPRLSHKGP(Nle)PF-miniPEG-K(PAL)GCRFGTCTVQKLAHQIYQFTDKDVAPRSKISPQGY-NH2 [SEQ ID NO: 228]
CLR/RAMP1 Max Activity % of positive control (CLR/RAMP1 receptor [1]): 130 % of positive control | CLR/RAMP2 Max Activity % of positive control (CLR/RAMP2 receptor [2]): 74 % of positive control | AGTRL1 Max Activity (apelin receptor AGTRL1): 97 % of positive controls

(G1p)RPRLSHKGPMPF [Apelin 13, reference compound]
AGTRL1 Max Activity (apelin receptor AGTRL1): 100 % of positive controls

Pyr(glu)-LYENKPRRPYIL-miniPEG-K(Pal)VQKLSAPVDPSSPHSY-NH2 [SEQ ID NO: 224]
CLR/RAMP1 Max Activity % of positive control (antagonist) (CLR/RAMP1 receptor [4]): 99 % of positive control | CLR/RAMP2 Max Activity % of positive control (antagonist) (CLR/RAMP2 receptor [5]): 100 % of positive control | NTSR1 Max Activity [6]: 57 % of positive controls

miniPEG-K(PAL)VQKLSAPVDPSSPHSY-NH2 [SEQ ID NO: 140]
receptor selectivity of antagonists, in words (CLR/RAMP1 receptor [4]): CLR/RAMP1-selective | CLR/RAMP1 Max Activity % of positive control (antagonist) (CLR/RAMP1 receptor [4]): 100 % of positive control | CLR/RAMP2 Max Activity % of positive control (antagonist) (CLR/RAMP2 receptor [5]): 90 % of positive control

Pal-KVQNLSAPVDPSSPHSY-NH2 [SEQ ID NO: 141]
antagonistic activity toward CLR/RAMP1 and/or CLR/RAMP2, in words (CLR/RAMP1 receptor [4]): minimal antagonizing activities | CLR/RAMP1 Max Activity % of positive control (antagonist) (CLR/RAMP1 receptor [4]): 43 % of positive control | CLR/RAMP2 Max Activity % of positive control (antagonist) (CLR/RAMP2 receptor [5]): 14 % of positive control

Ace-KRPPGFS-DβNal-I-miniPEG-K(PAL)GCRFGTCTVQKLAHQIYQFTDKDVAPRSKISPQGY-NH2 [SEQ ID NO: 231]
CLR/RAMP1 Max Activity % of positive control (CLR/RAMP1 receptor [1]): 115 % of positive control | CLR/RAMP2 Max Activity % of positive control (CLR/RAMP2 receptor [2]): 46 % of positive control | BDKRB1 Max Activity [7]: 109 % of positive controls

Ace-YNWNSFGLRF-miniPEG-K(PAL)VQKLAHQIYQFTDKDVAPRSKISPQGY-NH2 [SEQ ID NO: 148]
receptor selectivity of antagonists, in words (CLR/RAMP1 receptor [4]): pan-specific | CLR/RAMP1 Max Activity % of positive control (antagonist) (CLR/RAMP1 receptor [4]): 100 % of positive control | CLR/RAMP2 Max Activity % of positive control (antagonist) (CLR/RAMP2 receptor [5]): 97 % of positive control

olcegepant [BIBN4096, reference compound]
CLR/RAMP1 Max Activity % of positive control (CLR/RAMP1 receptor [1]): 105 % of positive control | CLR/RAMP1 Max Activity % of positive control (antagonist) (CLR/RAMP1 receptor [4]): 105 % of positive control | CLR/RAMP2 Max Activity % of positive control (CLR/RAMP2 receptor [2]): 0 % of positive control | CLR/RAMP2 Max Activity % of positive control (antagonist) (CLR/RAMP2 receptor [5]): 0 % of positive control

KKPYIL [[Lys 8,9] Neurotensin, reference compound]
NTSR1 Max Activity [6]: 100 % of positive controls

CSCC[C@H](NC(=O)[C@H](C)NC(=O)[C@@H]1CCCN1C(=O)[C@H](CC(N)=O)NC(=O)[C@H](CO)NC(=O)[C@H](CC(N)=O)NC(=O)[C@H](C)NC(=O)[C@@H](N)CO)C(=O)N[C@@H](C)C(=O)N1CCC[C@H]1C(=O)N[C@@H](CCCNC(=N)N)C(=O)N[C@@H](CCC(=O)O)C(=O)N[C@@H](CCCNC(=N)N)C(=O)N[C@@H](CCCCN)C(=O)N[C@@H](C)C(=O)NCC(=O)N[C@H]1CSSC[C@@H](C(=O)O)NC(=O)[C@H](CO)NC(=O)[C@H]([C@@H](C)O)NC(=O)[C@H](Cc2ccccc2)NC(=O)[C@H]([C@@H](C)O)NC(=O)[C@H](CCCCN)NC(=O)[C@H](Cc2c[nH]c3ccccc23)NC(=O)[C@H](Cc2ccccc2)NC(=O)[C@H](Cc2ccccc2)NC(=O)[C@H](CC(N)=O)NC(=O)[C@H](CCCCN)NC1=O [Somatostatin 28]
SSTR2 Max Activity [8]: 102 % of positive controls

Ace-KRPPGFSPFR-miniPEG-K(Pal)VQKLAHQIYQFTDKDVAPRSKISPQGY-NH2 [SEQ ID NO: 149]
receptor selectivity of antagonists, in words (CLR/RAMP1 receptor [4]): pan-specific | CLR/RAMP1 Max Activity % of positive control (antagonist) (CLR/RAMP1 receptor [4]): 101 % of positive control | CLR/RAMP2 Max Activity % of positive control (antagonist) (CLR/RAMP2 receptor [5]): 99 % of positive control

miniPEG-K(PAL)GCRFGTCTVQKLAHQIYQFTDKDVAPRSKISPQGY-NH2 [SEQ ID NO: 101]
CLR/RAMP1 Max Activity % of positive control (CLR/RAMP1 receptor [1]): 56 % of positive control | receptor selectivity of agonists, in words (CLR/RAMP2 receptor [2]; CLR/RAMP2 versus CLR/RAMP1): CLR/RAMP2-selective | CLR/RAMP2 Max Activity % of positive control (CLR/RAMP2 receptor [2]): 74 % of positive control | CLR/RAMP3 Max Activity % of positive control (CLR/RAMP3 receptor [3]): 129 % of positive control

Ace-Y(D-Ala)GF(D-Leu)-miniPEG-K(Pal)VQKLSAPVDPSSPHSY-NH2 [SEQ ID NO: 145]
receptor selectivity of antagonists, in words (CLR/RAMP1 receptor [4]): CLR/RAMP1-selective | CLR/RAMP1 Max Activity % of positive control (antagonist) (CLR/RAMP1 receptor [4]): 99 % of positive control | CLR/RAMP2 Max Activity % of positive control (antagonist) (CLR/RAMP2 receptor [5]): 100 % of positive control

miniPEG-K(PAL)GCRFGTCTVQKLAHQIYQFTDKDKDNVAPRSKISPQGY-NH2 [SEQ ID NO: 69]
CLR/RAMP1 Max Activity % of positive control (CLR/RAMP1 receptor [1]): 70 % of positive control | CLR/RAMP2 Max Activity % of positive control (CLR/RAMP2 receptor [2]): 147 % of positive control | CLR/RAMP3 Max Activity % of positive control (CLR/RAMP3 receptor [3]): 127 % of positive control

PEG5000-K[PAL]VQKLAHQIYQFTDKDSAPVDPSSPHSY-NH2 [SEQ ID NO: 192]
CLR/RAMP1 Max Activity % of positive control (antagonist) (CLR/RAMP1 receptor [4]): 101 % of positive control | CLR/RAMP2 Max Activity % of positive control (antagonist) (CLR/RAMP2 receptor [5]): 104 % of positive control

Ace-YGGFLRRIRPKLK-miniPEG-K(Pal)VQKLSAPVDPSSPHSY-NH2 [SEQ ID NO: 146]
receptor selectivity of antagonists, in words (CLR/RAMP1 receptor [4]): CLR/RAMP1-selective | CLR/RAMP1 Max Activity % of positive control (antagonist) (CLR/RAMP1 receptor [4]): 102 % of positive control | CLR/RAMP2 Max Activity % of positive control (antagonist) (CLR/RAMP2 receptor [5]): 98 % of positive control

PEG20,000-K[PAL]VQKLAHQIYQFTDKDSAPVDPSSPHSY-NH2 [SEQ ID NO: 190]
CLR/RAMP1 Max Activity % of positive control (antagonist) (CLR/RAMP1 receptor [4]): 104 % of positive control | CLR/RAMP2 Max Activity % of positive control (antagonist) (CLR/RAMP2 receptor [5]): 51 % of positive control

Pal-KVQKLAHQSAPVDPSSPHSY-NH2 [SEQ ID NO: 124]
CLR/RAMP1 Max Activity % of positive control (antagonist) (CLR/RAMP1 receptor [4]): 95 % of positive control | CLR/RAMP2 Max Activity % of positive control (antagonist) (CLR/RAMP2 receptor [5]): 103 % of positive control | CLR/RAMP3 Max Activity % of positive control (antagonist) (CLR/RAMP3 receptor [9]): 102 % of positive control

Ace-NFVPTNVGPFAF-NH2 [SEQ ID NO: 144]
antagonistic activity toward CLR/RAMP1 and/or CLR/RAMP2, in words (CLR/RAMP1 receptor [4]): minimal antagonizing activities | CLR/RAMP1 Max Activity % of positive control (antagonist) (CLR/RAMP1 receptor [4]): 98 % of positive control | CLR/RAMP2 Max Activity % of positive control (antagonist) (CLR/RAMP2 receptor [5]): 0 % of positive control
